According to patent US20240217970A1, “PHTHALIMIDO CEREBLON COMPLEX BINDERS AND TRANSCRIPTION FACTOR DEGRADERS AND METHODS OF USE” (DANA-FARBER CANCER INSTITUTE, INC., priority 2021, published 2024):

Assays:
[1] = target: T1, IKZF2 (Helios) (Homo sapiens, UniProt Q96SW2+Q9UKS7); assay: HiBiT-IKZF2 degradation assay in MOLT4 cells; format: cell-based; conditions: for inhibition at 10 µM: MOLT-4, 10 μM; for DC50: concentration at which 50% of HiBiT-Helios degradation was achieved, read-out: Cellular Degradation - IKZF2 DC50
T1 construct: endogenous in cells; host or cells: MOLT4 (CRISPR/Cas knock-in of HiBiT at the endogenous IKZF2 locus)
T1 sequence (Q9UKS7 whole entry): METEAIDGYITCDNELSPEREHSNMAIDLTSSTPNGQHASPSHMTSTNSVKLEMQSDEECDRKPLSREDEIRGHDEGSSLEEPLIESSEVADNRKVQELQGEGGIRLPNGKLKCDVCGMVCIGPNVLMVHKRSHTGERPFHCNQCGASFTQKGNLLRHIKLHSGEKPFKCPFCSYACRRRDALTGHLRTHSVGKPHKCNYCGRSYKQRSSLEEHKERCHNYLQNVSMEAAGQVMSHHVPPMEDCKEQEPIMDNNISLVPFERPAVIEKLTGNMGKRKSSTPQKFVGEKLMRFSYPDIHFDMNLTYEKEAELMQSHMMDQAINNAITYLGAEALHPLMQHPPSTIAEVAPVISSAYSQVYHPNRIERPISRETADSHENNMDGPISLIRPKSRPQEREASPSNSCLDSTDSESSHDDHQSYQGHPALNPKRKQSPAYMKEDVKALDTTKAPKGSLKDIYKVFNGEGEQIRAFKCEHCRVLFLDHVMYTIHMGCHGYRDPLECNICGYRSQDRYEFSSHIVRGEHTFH
T1 sequence (Q96SW2 whole entry): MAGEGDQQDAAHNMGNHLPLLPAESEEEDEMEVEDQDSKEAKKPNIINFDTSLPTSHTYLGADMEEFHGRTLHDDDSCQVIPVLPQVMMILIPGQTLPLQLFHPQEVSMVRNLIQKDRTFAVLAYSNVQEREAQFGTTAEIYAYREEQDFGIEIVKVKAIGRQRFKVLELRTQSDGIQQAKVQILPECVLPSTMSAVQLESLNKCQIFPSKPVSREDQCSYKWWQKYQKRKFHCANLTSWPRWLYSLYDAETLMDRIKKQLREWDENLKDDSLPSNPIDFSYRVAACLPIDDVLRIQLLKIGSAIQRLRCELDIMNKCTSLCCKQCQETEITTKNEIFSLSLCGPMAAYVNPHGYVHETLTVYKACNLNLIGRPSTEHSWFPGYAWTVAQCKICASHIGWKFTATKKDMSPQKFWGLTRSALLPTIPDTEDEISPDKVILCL
T1 sequence (Q16531 whole entry partner): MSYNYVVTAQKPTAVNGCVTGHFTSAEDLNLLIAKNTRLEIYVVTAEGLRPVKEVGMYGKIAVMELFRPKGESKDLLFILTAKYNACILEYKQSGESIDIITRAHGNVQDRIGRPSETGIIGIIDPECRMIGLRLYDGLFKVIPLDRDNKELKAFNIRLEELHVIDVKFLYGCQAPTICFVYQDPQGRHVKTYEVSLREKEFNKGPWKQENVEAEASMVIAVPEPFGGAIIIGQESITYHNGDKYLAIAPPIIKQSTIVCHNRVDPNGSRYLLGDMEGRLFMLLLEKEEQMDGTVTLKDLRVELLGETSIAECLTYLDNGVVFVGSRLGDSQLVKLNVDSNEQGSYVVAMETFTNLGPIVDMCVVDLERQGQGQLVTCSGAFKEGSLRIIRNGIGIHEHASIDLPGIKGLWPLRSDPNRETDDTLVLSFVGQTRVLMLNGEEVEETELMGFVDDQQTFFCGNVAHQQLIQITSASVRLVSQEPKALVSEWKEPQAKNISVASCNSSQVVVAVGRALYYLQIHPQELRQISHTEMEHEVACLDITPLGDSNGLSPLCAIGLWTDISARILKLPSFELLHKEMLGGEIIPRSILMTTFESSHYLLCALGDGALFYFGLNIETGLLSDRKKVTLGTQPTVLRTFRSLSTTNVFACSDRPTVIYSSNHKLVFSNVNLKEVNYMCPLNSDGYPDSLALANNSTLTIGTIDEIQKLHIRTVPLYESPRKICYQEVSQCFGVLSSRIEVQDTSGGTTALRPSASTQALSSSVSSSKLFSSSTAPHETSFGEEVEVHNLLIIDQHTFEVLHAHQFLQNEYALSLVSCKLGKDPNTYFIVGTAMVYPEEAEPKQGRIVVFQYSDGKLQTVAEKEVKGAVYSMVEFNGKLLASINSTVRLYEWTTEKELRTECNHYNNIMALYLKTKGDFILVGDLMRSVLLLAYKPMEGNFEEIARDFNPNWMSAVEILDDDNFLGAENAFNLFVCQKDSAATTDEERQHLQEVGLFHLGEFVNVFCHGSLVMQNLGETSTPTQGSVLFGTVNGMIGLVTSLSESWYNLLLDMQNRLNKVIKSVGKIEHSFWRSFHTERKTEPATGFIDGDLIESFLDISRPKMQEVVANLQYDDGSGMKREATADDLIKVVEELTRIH
Description: The HiBiT protein tagging system was applied to MOLT4 cells via a CRISPR/Cas-mediated insertion of the HiBiT peptide tag (Promega™) to the N-terminus of the IKZF2 gene locus (Neon™ Transfection System). The resulting HiBiT-Helios stable cell line was treated with inventive compounds 1-10 in triplicates following a 13-point concentration scheme ranging from 10 μM to 0.00026 μM. At the indicated timepoints, the Nano-Glo® HiBiT Lytic Detection system (Promega™) was utilized for detecting bioluminescence of the HiBiT tag in treated cells: the abundance of the tag is proportionate to the level of luminescence. Following normalization to DMSO, dose-response curves were plotted (GraphPad Prism) to determine the concentration points at which 50% of HiBiT-Helios degradation was achieved by each compound. The extent of degradation (range of luminescence) from the highest to lowest concentration points was calculated to determine Dmax.

[2] = target: T2, CRBN (NanoLuc-CRBN) (Homo sapiens, UniProt Q96SW2); assay: Cellular CRBN NanoBRET engagement assay; format: cell-based; conditions: HEK293T cells stably expressing NanoLuc-CRBN; tracer 250 nM; two hours incubation
T2 construct: expressed in transfected cells; host or cells: HEK293T (lentiviral transduction, puromycin selection)
T2 sequence (Q96SW2 whole entry, species assumed): as the sequence (Q96SW2 whole entry) above
Description: HEK293T cells were transduced with lentivirus and put under puromycin selection (5 μg/mL) for two weeks to produce a cell line stably expressing CRBN with N-terminally fused NanoLuc luciferase (NanoLuc®-CRBN). After antibiotic selection, cells were cultured in DMEM (Gibco, Life Technologies™) supplemented with 10% FBS and 1 μg/mL puromycin to maintain stable NanoLuc®-CRBN expression.
To run the assay, cells were cultured to confluency in 10 cm^2 tissue culture treated plates (Corning®, 430165), washed with PBS and trypsinized at room temperature to detach from the cell culture plate. After 3-4 minutes, the trypsin was quenched with 5× volume DMEM media (Gibco, Life Technologies™) with 10% FBS and cells are collected by centrifugation (1000 rpm, 5 min). The supernatant was removed by vacuum aspiration and the pellet was then resuspended in Opti-MEM™ without phenol red. The density of this cell suspension was determined by diluting the cells 1:1 with trypan blue, then counting using a Countess™ II (Thermo Fischer Scientific) and then diluted to the required volume at 2×10^5 viable cells/mL in Opti-MEM™ I (Gibco, Life Technologies™). CRBN engagement tracer (stock at 10 μM in 31.25% PEG-400, 12.5 mM HEPES, pH 7.5, filtered using a 0.22 μm nitrocellulose membrane; final concentration in cell suspension for assay at 250 nM) was added to the suspension. Cells were then plated in a white/opaque cell culture treated 384-well plate (Corning®, 3570) at volume of 50 μL/well. After plating, the assay plate was centrifuged (500×g, 5 min) and covered in aluminum foil. Compounds for testing were added to the plate using D300e Digital Dispenser (HP) in duplicate 12-pt titrations from a 10 mM stock in DMSO, with DMSO normalized to 1% total volume. The plate was then placed in an incubator at 37° C., 5% CO2 for two hours. After incubation, the plate was removed and set on the bench to come to room temperature (˜10-15 min). The NanoLuc® substrate (500× solution)* and extracellular inhibitor (1500× solution)* were diluted in Opti-MEM™ I (Gibco, Life Technologies™) to prepare a 3× solution. This was then added to each well (25 μL/well). The plate was read on a Pherastar® FSX microplate reader with simultaneous dual emission capabilities to read 384-well plates at 450 and 520 nm. The NanoBRET™ ratio was calculated by dividing the signal at 520 nm by the signal at 450 nm for each sample. Duplicate points were averaged and plotted against [compound, M] to generate an ECso curve.

Compound	inhibition at 10 µM [1] [%]	DC50 [1] [nM]	IC50 [2] [nM]
O=C1CCC(N2C(=O)c3ccc(C4(O)CCN(Cc5ccccc5C(F)(F)F)CC4)cc3C2=O)C(=O)N1 (stereo not shown) [Compound 14]	57	20	62
N#Cc1ccc(Oc2cccc(CN3CCC(O)(c4ccc5c(c4)C(=O)N(C4CCC(=O)NC4=O)C5=O)CC3)c2)cc1 (stereo not shown) [Compound 5]	77	4.3	24
COc1cccc(CN2CCC(O)(c3ccc4c(c3)C(=O)N(C3CCC(=O)NC3=O)C4=O)CC2)c1 (stereo not shown) [Compound 10]	77	16	
O=C1CCC(N2C(=O)c3ccc(C4(O)CCN(Cc5cccc6ccccc56)CC4)cc3C2=O)C(=O)N1 (stereo not shown) [Compound 9]	72	14	15
O=C1CCC(N2C(=O)c3ccc(C4CCN(Cc5ccccc5)CC4)cc3C2=O)C(=O)N1 (stereo not shown) [Compound 20]	45		
O=C1CCC(N2C(=O)c3ccc(C4=CCN(Cc5ccccc5)CC4)cc3C2=O)C(=O)N1 (stereo not shown) [Compound 19, 5-(1-Benzyl-1,2,3,6-tetrahydropyridin-4-yl)-2-(2,6-dioxopiperidin-3-yl)isoindoline-1,3-dione]	30		1700
O=C1CCC(N2C(=O)c3ccc(C4(O)CCN(Cc5cccc(Oc6ccc(Cl)cc6)c5)CC4)cc3C2=O)C(=O)N1 (stereo not shown) [Compound 3]	79	8.8	54
O=C1CCC(N2C(=O)c3ccc(C4(O)CCN(Cc5cccc(Oc6ccc(F)cc6)c5)CC4)cc3C2=O)C(=O)N1 (stereo not shown) [Compound 6]	77	7.3	< 2.6
O=C1CCC(N2C(=O)c3ccc(C4(O)CCN(Cc5ccccc5)CC4)cc3C2=O)C(=O)N1 (stereo not shown) [Compound 18, 5-(1-benzyl-4-hydroxypiperidin-4-yl)-2-(2,6-dioxopiperidin-3-yl)isoindoline-1,3-dione]	70	22	65
O=C1CCC(N2C(=O)c3ccc(C4CCN(Cc5cccc(Nc6ccccn6)n5)CC4)cc3C2=O)C(=O)N1 (stereo not shown) [Compound 11]	45		240
O=C1CCC(N2C(=O)c3ccc(C4(O)CCN(Cc5cc(F)cc(F)c5)CC4)cc3C2=O)C(=O)N1 (stereo not shown) [Compound 12]	76	61	
O=C1CCC(N2C(=O)c3ccc(C4(O)CCN(Cc5ccc6cc(-c7ccccc7)nn6c5)CC4)cc3C2=O)C(=O)N1 (stereo not shown) [Compound 1, 2-(2,6-dioxo-3-piperidyl)-5-[4-hydroxy-1-[(2-phenylpyrazolo[1,5-a]pyridin-6-yl)methyl]-4-piperidyl]isoindoline-1,3-dione]	80	4.9	38
O=C1CCC(N2C(=O)c3ccc(C4(O)CCN(Cc5ccc(C(F)(F)F)cc5)CC4)cc3C2=O)C(=O)N1 (stereo not shown) [Compound 16]	69	56	
O=C1CCC(N2C(=O)c3ccc(C4(O)CCN(Cc5cccc(Oc6ccccc6)c5)CC4)cc3C2=O)C(=O)N1 (stereo not shown) [Compound 15]	76	4.2	31
O=C1CCC(N2C(=O)c3ccc(C4(O)CCN(CC5CCOCC5)CC4)cc3C2=O)C(=O)N1 (stereo not shown) [Compound 7]	55	55	56
O=C1CCC(N2C(=O)c3ccc(C4(O)CCN(Cc5ccc(OC(F)F)cc5)CC4)cc3C2=O)C(=O)N1 (stereo not shown) [Compound 13]	74	19	
O=C1CCC(N2C(=O)c3ccc(C4(O)CCN(Cc5cccc(Nc6ccccn6)n5)CC4)cc3C2=O)C(=O)N1 (stereo not shown) [Compound 8]	71	24	76
COc1ccc(Oc2cccc(CN3CCC(O)(c4ccc5c(c4)C(=O)N(C4CCC(=O)NC4=O)C5=O)CC3)c2)cc1 (stereo not shown) [Compound 2]	80	5.1	41
O=C1CCC(N2C(=O)c3ccc(C4(O)CCN(Cc5ccc(F)c(Oc6ccccc6)c5)CC4)cc3C2=O)C(=O)N1 (stereo not shown) [Compound 4]	73	23	88
O=C1CCC(N2C(=O)c3ccc(C4(O)CCN(Cc5ccc6ccccc6c5)CC4)cc3C2=O)C(=O)N1 (stereo not shown) [Compound 17, 2-(2,6-dioxo-3-piperidyl)-5-[4-hydroxy-1-(2-naphthylmethyl)-4-piperidyl]isoindoline-1,3-dione]	80	13	200
